Consider two molecules from patent publication US20260355177A1, “TREATMENT FOR APLASTIC ANEMIA (AA)” (ZYDUS LIFESCIENCES LIMITED, priority 2022, published 2026).

Assay [1] has as its system busulphan-induced aplastic anemia in Balb/c mice. Briefly: Busulphan-induced aplastic anemia in Balb/c mice: white blood cell (WBC) and platelet count. In kind it is in vivo. Conditions: after 44 days of treatment; Formula (Ia) 15 mg/kg PO daily; Romiplostim 50 μg/kg SC once a week; mean±SEM, n=6. The protocol: Aplastic anemia (AA) was induced in BALB/c mice by administration of busulphan (BU). BU was dissolved in acetone at concentrations of 5-10 mg/mL. Immediately before administration, deionized water was added to the BU-acetone solution and the solution was given by intraperitoneal (ip) injection at dose of 9 mg/kg. Control mice were given vehicle at the same dose volume.^9 Compound of formula (Ia) (15 mg/kg, PO, daily) and Romiplostim (50 μg/kg, SC, once a week) combination were administered.
Mice were be dosed with vehicle or BU on 10 occasions over a period of 21 days (days 1, 3, 6, 8, 10, 13, 15, 17, 19 and 21). Between 1 to 127 days after the final BU dose, mice from each group were autopsied for blood.^9
The changes in the white blood cell (WBC) and platelet count were measured after 44 days of treatment. Data are mean±SEM (n=6 for each group).

Assay [2] concerns cyclophosphamide-induced aplastic anemia in C57 mice. Kind of assay: Cyclophosphamide-induced aplastic anemia in C57 mice: white blood cell (WBC) and platelet count. Conditions: after 11 days of treatment; Formula (Ia) 15 mg/kg PO daily; Romiplostim 30 μg/kg SC once a week; mean±SEM, n=6. In kind it is in vivo. As for the experimental part: Aplastic anemia (AA) was induced in C57 mice by administration of cyclophosphamide. Cyclophosphamide was dissolved in deionized water at concentrations of 20 mg/mL. Immediately before administration, deionized water was added to the stock solution and the solution was given by intraperitoneal (ip) injection at dose of 100 mg/kg. Mice were dosed with vehicle or cyclophosphamide for 4 days. Control mice were given vehicle at the same dose volume.^10 Compound of formula (Ia) (15 mg/kg, PO, daily) and Romiplostim (30 μg/kg, SC, once a week) combination were administered.
Blood was collected from each group after 11 days of treatment. The changes in the white blood cell (WBC) and platelet count were measured. Data are mean±SEM (n=6 for each group).

`O=C(O)CNC(=O)c1c(O)c2ccccc2n(OCC2CC2)c1=O` [Formula (Ia)]: in assay [1], the Platelets was 676.2 10^3/uL, the “Platelets % Change against vehicle control” value (shortened to “Platelets % Change”) is given as 30.6%, the WBC is 2.6 10^3/uL and the “WBC % Change against vehicle control” value is 10.9%. In assay [2], the Platelets is 742.3 10^3/uL, the “Platelets % Change” value is on record as 32.1%, the WBC is recorded as 7.0 10^3/uL and the “WBC % Change against vehicle control” value was 10.1%.
As to Romiplostim, in assay [1], the Platelets was 1257.0 10^3/uL, the “Platelets % Change” value is listed as 142.7%, the WBC was 4.2 10^3/uL and the “WBC % Change against vehicle control” value came to 79.3%.
